Drawing on patent US11976054B2, “Amide derivative and preparation method therefore and use thereof in medicine” (Chengdu Baiyu Pharmaceutical Co., Ltd., priority 2019, dated 2024), this text covers IC50 for 28 compounds.

A value given as a limit tells only on which side of the number the result lay.

A word on the IC50: it is the concentration that inhibits the measured activity by half. High values mean lower potency, low ones higher potency.

One test has as its system Human monocyte cell line THP-1. Put plainly: Detection of THP-1 cell pyroptosis (Caspase-Glo 1 Inflammasome Assay). It is filed as cell-based. As to conditions: Homo sapiens, THP-1, THP-1 pyroptosis, 20 nM PMA 48 h, 1 μg/mL LPS, compound 3 h. The protocol:
Human monocyte cell line THP-1 (ATCC® TB-202TM) was cultured in RPMI-1640 culture medium containing […], 1 mM pyruvic acid, 0.05 mM β-mercaptoethanol and 10% double antibody under the culture conditions of 37° C. and […].
Cell counting was performed, THP-1 cells were seeded into a 96-well plate at 50000 per well, and 20 nM PMA was added for inducing at 37° C./5% CO2 for 48 h. The culture medium was then discarded, and 100 μL of serum-free RPMI-1640 medium containing 1 μg/mL LPS was added. 5 μL of compound or solvent control was added and 3-fold diluted in gradient from a maximum concentration of 10 μM, and 10 gradient concentrations were set. The mixtures were incubated at 37° C./5% CO2 for 3 h. After the incubation, the mixtures were centrifuged at 300 g for 5 min, and the culture medium was discarded. Pyroptosis assay was performed according to specific steps described in instructions of Caspase-Glo® 1 Inflammasome Assay kit. IC50 was calculated using GraphPad Prism7.0 software.
For the compound `C[C@H](c1ccc2c(c1NC(=O)NS(=O)(=O)c1sc(C(C)(C)O)cc1C#N)CCC2)C1CC1` [Compound 63, (S)-3-cyano-N-((5-(1-cyclopropylethyl)-2,3-dihydro-1H-inden-4-yl)carbamoyl)-5-(2-hydroxypropan-2-yl)thiophene-2-sulfonamide], the IC50 was 100 to 500 nM.

For `CC(c1ccc2c(c1NC(=O)NS(=O)(=O)c1cc(C(C)(C)O)co1)CCC2)C1CC1` (stereo not shown) [Compound 1, N-((5-(1-cyclopropylethyl)-2,3-dihydro-1H-inden-4-yl)carbamoyl)-4-(2-hydroxypropan-2-yl)furan-2-sulfonamide], the concentration for half-maximal inhibition (IC50) is 100 to 500 nM.

`C[C@@H](c1ccc2c(c1NC(=O)NS(=O)(=O)c1sc(C(C)(C)O)cc1C#N)CCC2)C1CC1` [Compound 62, (R)-3-cyano-N-((5-(1-cyclopropylethyl)-2,3-dihydro-1H-inden-4-yl)carbamoyl)-5-(2-hydroxypropan-2-yl)thiophene-2-sulfonamide] returned a 50% inhibitory concentration (IC50) not above 100 nM.

The compound `C[C@H](c1ccc2c(c1NC(=O)NS(=O)(=O)c1cc(C(C)(C)O)co1)CC2)C1CC1` [Compound 35, (S)-N-((3-(1-cyclopropylethyl)bicyclo[4.2.0]octa-1(6),2,4-trien-2-yl)carbamoyl)-4-(2-hydroxypropan-2-yl)furan-2-sulfonamide] gave an IC50 of 1000 to 5000 nM.

In turn, `O=C(Nc1c(CC2CCC2)ccc2c1CCC2)NS(=O)(=O)c1cc(C2(O)CC2)co1` [Compound 61, N-((5-(cyclobutylmethyl)-2,3-dihydro-1H-inden-4-yl)carbamoyl)-4-(1-hydroxycyclopropyl)furan-2-sulfonamide] gave an IC50 of 1000 to 5000 nM.

As for `C[C@@H](c1ccc2c(c1NC(=O)N[S@@](=N)(=O)c1cc(C(C)(C)O)cs1)CCC2)C1CC1` [Compound 55-1], the IC50 lay in the range of 100 to 500 nM.

As for `C[C@@H](c1ccc2c(c1NC(=O)NS(=O)(=O)c1cc(C(C)(C)O)co1)CCC2)C1CCC1` [Compound 79, (R)-N-((5-(1-cyclobutylethyl)-2,3-dihydro-1H-inden-4-yl)carbamoyl)-4-(2-hydroxypropan-2-yl)furan-2-sulfonamide], the IC50 lay within 100 to 500 nM.

As to `C=C(c1c(C)cc2c(c1NC(=O)NS(=O)(=O)c1cc(C(C)(C)O)co1)CCC2)C1CC1` [Compound 40, N-((5-(1-cyclopropylvinyl)-6-methyl-2,3-dihydro-1H-inden-4-yl)carbamoyl)-4-(2-hydroxypropan-2-yl)furan-2-sulfonamide], the IC50 fell in the range of 1000 to 5000 nM.

`C[C@@H](c1ccc2c(c1NC(=O)NS(=O)(=O)c1cc(C(C)(C)O)co1)CCC2)C1CCCC1` [Compound 26, (R)-N-((5-(1-cyclopentylethyl)-2,3-dihydro-1H-inden-4-yl)carbamoyl)-4-(2-hydroxypropan-2-yl)furan-2-sulfonamide] displayed an IC50 of 1000 to 5000 nM.

For the compound `C[C@@H](c1ccc2c(c1NC(=O)NS(=O)(=O)c1cc(C(C)(C)O)co1)CC2)C1CC1` [Compound 37, (R)-N-((3-(1-cyclopropylethyl)bicyclo[4.2.0]octa-1(6),2,4-trien-2-yl)carbamoyl)-4-(2-hydroxypropan-2-yl)furan-2-sulfonamide], the IC50 lay in the range of 100 to 500 nM.

For `CC(C)(O)c1coc(S(=O)(=O)NC(=O)Nc2c(CC3CCCC3)ccc3c2CCC3)c1` [Compound 28, N-((5-(cyclopentylmethyl)-2,3-dihydro-1H-inden-4-yl)carbamoyl)-4-(2-hydroxypropan-2-yl)furan-2-sulfonamide], the IC50 lay in the range of 500 to 1000 nM.

For the compound `C[C@H](c1cc(C#N)c2c(c1NC(=O)NS(=O)(=O)c1cc(C(C)(C)O)co1)CCC2)C1CC1` [Compound 47, (S)-N-((7-cyano-5-(1-cyclopropylethyl)-2,3-dihydro-1H-inden-4-yl)carbamoyl)-4-(2-hydroxypropan-2-yl)furan-2-sulfonamide], the IC50 fell in the range of 500 to 1000 nM.

In turn, `C[C@@H](c1ccc2c(c1NC(=O)NS(=O)(=O)c1cc(C3(O)CC3)co1)CCC2)C1CC1` [Compound 59, (R)-N-((5-(1-cyclopropylethyl)-2,3-dihydro-1H-inden-4-yl)carbamoyl)-4-(1-hydroxycyclopropyl)furan-2-sulfonamide] yielded an IC50 of 500 to 1000 nM.

Compound `C[C@@H](c1ccc2c(c1NC(=O)NS(=O)(=O)c1ccc(C(C)(C)O)s1)CCC2)C1CC1` [Compound 58, (R)-N-((5-(1-cyclopropylethyl)-2,3-dihydro-1H-inden-4-yl)carbamoyl)-5-(2-hydroxypropan-2-yl)thiophene-2-sulfonamide] had an IC50 of 1000 to 5000 nM.

As to `[2H]c1cc([C@@H](C)C2CC2)c(NC(=O)NS(=O)(=O)c2cc(C(C)(C)O)co2)c2c1CCC2` [Compound 30, (S)-N-((5-(1-cyclopropylethyl)-2,3-dihydro-1H-inden-4-yl-7-d)carbamoyl)-4-(2-hydroxypropan-2-yl)furan-2-sulfonamide], the IC50 was 1000 to 5000 nM.

As to `C[C@@H](c1ccc2c(c1NC(=O)NS(=O)(=O)c1cc(C(C)(C)O)co1)CCC2)C1CC1` [Compound 5, (R)-N-((5-(1-cyclopropylethyl)-2,3-dihydro-1H-inden-4-yl)carbamoyl)-4-(2-hydroxypropan-2-yl)furan-2-sulfonamide], the IC50 is not above 100 nM.

`C[C@H](c1ccc2c(c1NC(=O)NS(=O)(=O)c1ccc(C(C)(C)O)s1)CCC2)C1CC1` [Compound 57, (S)-N-((5-(1-cyclopropylethyl)-2,3-dihydro-1H-inden-4-yl)carbamoyl)-5-(2-hydroxypropan-2-yl)thiophene-2-sulfonamide] yielded an IC50 of 1000 to 5000 nM.

The test is the same for the next values; noted with them: THP-1 pyroptosis, 20 nM PMA 48 h, 1 μg/mL LPS, compound 3 h.
For the compound `CC(C)c1cccc([C@@H](C)C2CC2)c1NC(=O)NS(=N)(=O)c1cc(C(C)(C)O)co1` (mixture of isomers) [Compound 73-2, (RS, SC) and (SS, SC)-N-((2-(1-cyclopropylethyl)-6-isopropylphenyl)carbamoyl)-4-(2-hydroxypropan-2-yl)furan-2-sulfonimidamide], the IC50 was 1000 to 5000 nM.

In the case of `Cc1oc(S(=N)(=O)NC(=O)Nc2c(C(C)C3CC3)ccc3c2CCC3)cc1C(C)(C)O` (racemic) [Compound 25-1, (RS, SC)- and (SS, SC)-N-((5-(1-cyclopropylethyl)-2,3-dihydro-1H-inden-4-yl)carbamoyl)-4-(2-hydroxypropan-2-yl)-5-methylfuran-2-sulfonimidamide], the IC50 was not above 100 nM.

“(RS, RC)- and (SS, RC)-N-((5-(1-cyclopropylethyl)-2,3-dihydro-1H-inden-4-yl-7-d)carbamoyl)-4-(2-hydroxypropan-2-yl)furan-2-sulfonimidamide [Compound 31-1]” registered an IC50 of 100 to 500 nM.

`Cc1oc(S(=N)(=O)NC(=O)Nc2c(C(C)C3CC3)ccc3c2CCC3)cc1C(C)(C)O` (racemic) [Compound 25-2, (RS, SC)- and (SS, SC)-N-((5-(1-cyclopropylethyl)-2,3-dihydro-1H-inden-4-yl)carbamoyl)-4-(2-hydroxypropan-2-yl)-5-methylfuran-2-sulfonimidamide] displayed an IC50 of 100 to 500 nM.

In turn, `CC(c1ccc2c(c1NC(=O)NS(=N)(=O)c1cc(C(C)(C)O)co1)CC2)C1CC1` (racemic) [Compound 36-2, (RS, SC)- and (SS, SC)-N-((3-(1-cyclopropylethyl)bicyclo[4.2.0]octa-1(6),2,4-trien-2-yl)carbamoyl)-4-(2-hydroxypropan-2-yl)furan-2-sulfonimidamide] gave an IC50 of 1000 to 5000 nM.

Compound `CC(c1ccc2c(c1NC(=O)NS(=N)(=O)c1ccc(C(C)(C)O)s1)CCC2)C1CC1` (racemic) [Compound 51-2, (RS, SC)- and (SS, SC)-N-((5-(1-cyclopropylethyl)-2,3-dihydro-1H-inden-4-yl)carbamoyl)-5-(2-hydroxypropan-2-yl)thiophene-2-sulfonimidamide] registered an IC50 of 5000 to 10000 nM.

`CC(C)c1cccc(C(C)C2CC2)c1NC(=O)NS(=N)(=O)c1cc(C(C)(C)O)co1` (racemic) [Compound 74-2, (RS, RC)- and (SS, RC)-N-((2-(1-cyclopropylethyl)-6-isopropylphenyl)carbamoyl)-4-(2-hydroxypropan-2-yl)furan-2-sulfonimidamide]: the IC50 fell in the range of 1000 to 5000 nM.

Compound `CC(c1cc(C#N)c2c(c1NC(=O)NS(=N)(=O)c1cc(C(C)(C)O)co1)CCC2)C1CC1` (racemic) [Compound 46-1, (RS, RC)- and (SS, RC)-N-((7-cyano-5-(1-cyclopropylethyl)-2,3-dihydro-1H-inden-4-yl)carbamoyl)-4-(2-hydroxypropan-2-yl)furan-2-sulfonimidamide] showed an IC50 of 100 to 500 nM.

“(RS, SC)- and (SS, SC)-N-((5-(1-cyclopropylethyl)-2,3-dihydro-1H-inden-4-yl)carbamoyl)-4-(2-hydroxypropan-2-yl-1,1,1,3,3,3-d6)furan-2-sulfonimidamide [Compound 49-1]” returned an IC50 of 100 to 500 nM.

On to `CC(C)(O)c1ccc(S(=N)(=O)NC(=O)Nc2c(CC3CCC3)ccc3c2CCC3)s1` (racemic) [Compound 53-2, (RS)- and (SS)-N-((5-(cyclobutylmethyl)-2,3-dihydro-1H-inden-4-yl)carbamoyl)-5-(2-hydroxypropan-2-yl)thiophene-2-sulfonimidamide], for which the 50% inhibitory concentration (IC50) fell in the range of 100 to 500 nM.

Turning to “(RS, SC)- and (SS, SC)-N-((5-(1-cyclobutylethyl)-2,3-dihydro-1H-inden-4-yl)carbamoyl)-4-(2-hydroxypropan-2-yl)furan-2-sulfonimidamide [Compound 82-2]”, the IC50 fell in the range of 1000 to 5000 nM.
